Series [1] relates to Beet Armyworm (Spodoptera exigua) ("BAW"). In words: Bioassay on Beet Armyworm (BAW), 128-well diet tray assay, percent mortality. It counts as in vivo. The note with it: for BAW rating (percent mortality class): Beet Armyworm, 128-well diet tray assay; for pest or weed control at 50 µg/cm2: Spodoptera exigua, read-out: BAW. In short, it runs like this: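 Larvae in covered diet trays held at 25 °C, 14:10 light-dark, for five to seven days. Percent mortality scored per well and averaged over eight wells per treatment.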

Series [2] concerns Cabbage Looper (Trichoplusia ni) ("CL"). In words: Bioassay on Cabbage Looper (CL), 128-well diet tray assay, percent mortality. It counts as in vivo. The note with it: for CL rating (percent mortality class): Cabbage Looper, 128-well diet tray assay; for pest or weed control at 50 µg/cm2: Trichoplusia ni, read-out: CL. In short, it runs like this: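 Larvae held in covered diet trays at 25 °C, 14:10 light-dark, for five to seven days. Percent mortality scored per well and averaged over eight wells.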

Series [3] relates to Green Peach Aphid ("GPA") (Myzus persicae). In words: Bioassay on Green Peach Aphid (GPA), foliar spray on cabbage seedlings, corrected % control. It counts as in vivo. Particulars: for GPA rating (corrected % control class): foliar spray on cabbage seedlings; for GPA: Table ABC (P), rating of corrected % control.
Series [4] concerns Yellow Fever Mosquito "YFM" (Aedes aegypti). Particulars: for YFM rating (mortality class): Yellow Fever Mosquito larvae, 96-well plates; for YFM: Table ABC (P), rating of mortality, Yellow Fever Mosquito.

Turning to `CC(C)c1ccccc1NC(=S)NC(=O)NCCc1ccc(-c2ncn(-c3ccc(OC(F)(F)F)cc3)n2)cc1` [F2, N-[2-isopropylphenyl]-N-[2-(4-{1-[4-(trifluoromethoxy)phenyl]-1H-1,2,4-triazol-3-yl}phenyl)ethyl]dicarbonimidothioic diamide], the “BAW rating (percent mortality class)” value in series [1] is reported as “A (50-100)”. The “CL rating (percent mortality class)” value in series [2] is reported as “A (50-100)”. Also, the “GPA rating (corrected % control class)” value in series [3] is “B (More than 0-Less than 80)”. In series [4], the “YFM rating (mortality class)” value is “A (80-100)”.
Regarding `Cc1ccc(C(C)C)c(N2C(=O)CS/C2=N\C(=O)NCCc2ccc(-c3ncn(-c4ccc(OC(F)(F)F)cc4)n3)cc2)c1` [F5, (Z)-1-(3-(2-isopropyl-5-methylphenyl)-4-oxothiazolidin-2-ylidene)-3-(4-(1-(4-(trifluoromethoxy)phenyl)-1H-1,2,4-triazol-3-yl)phenethyl)urea], the “BAW rating (percent mortality class)” value in series [1] is “A (50-100)”. In addition, in series [2], the “CL rating (percent mortality class)” value is “A (50-100)”. Moreover, the “GPA rating (corrected % control class)” value in series [3] is reported as “A (80-100)”. The “YFM rating (mortality class)” value in series [4] is on record as “A (80-100)”.
As for `COc1ccc(C(C)C)c(N2C(=O)CS/C2=N\C(=O)NCCc2ccc(-c3ncn(-c4ccc(OC(F)(F)F)cc4)n3)cc2)c1` [F6, (Z)-1-(3-(2-isopropyl-5-methoxyphenyl)-4-oxothiazolidin-2-ylidene)-3-(4-(1-(4-(trifluoromethoxy)phenyl)-1H-1,2,4-triazol-3-yl)phenethyl)urea], the “BAW rating (percent mortality class)” value in series [1] is given as “A (50-100)”. The “CL rating (percent mortality class)” value in series [2] is “A (50-100)”. In addition, the “GPA rating (corrected % control class)” value in series [3] was “B (More than 0-Less than 80)”. In series [4], the “YFM rating (mortality class)” value is “A (80-100)”.
As for `CC(Cc1ccc(-c2ncn(-c3ccc(OC(F)(F)F)cc3)n2)cc1)NC(=O)/N=C1\SCC(=O)N1c1ccccc1C(C)C` (stereo not shown) [F7, (Z)-1-(3-(2-isopropylphenyl)-4-oxothiazolidin-2-ylidene)-3-(1-(4-(1-(4-(trifluoromethoxy)phenyl)-1H-1,2,4-triazol-3-yl)phenyl)propan-2-yl)urea], the “BAW rating (percent mortality class)” value in series [1] is recorded as “A (50-100)”. For the same compound, in series [2], the “CL rating (percent mortality class)” value is “A (50-100)”. Further, the “GPA rating (corrected % control class)” value in series [3] is “B (More than 0-Less than 80)”. The “YFM rating (mortality class)” value in series [4] is listed as “A (80-100)”.
With `Cc1ccc(C(C)C)c(N2C(=O)CS/C2=N\C(=O)NCC(C)c2ccc(-c3ncn(-c4ccc(OC(F)(F)F)cc4)n3)cc2)c1` (stereo not shown) [F10, (Z)-1-(3-(2-isopropyl-5-methylphenyl)-4-oxothiazolidin-2-ylidene)-3-(2-(4-(1-(4-(trifluoromethoxy)phenyl)-1H-1,2,4-triazol-3-yl)phenyl)propyl)urea], the “BAW rating (percent mortality class)” value in series [1] is listed as “A (50-100)”. Further, the “CL rating (percent mortality class)” value in series [2] is “A (50-100)”. Further, the “GPA rating (corrected % control class)” value in series [3] is recorded as “B (More than 0-Less than 80)”. The “YFM rating (mortality class)” value in series [4] is “A (80-100)”.
Consider `CCc1cccc(C)c1N1C(=O)CS/C1=N\C(=O)NCCc1ccc(-c2ncn(-c3ccc(OC(F)(F)F)cc3)n2)cc1` [P50, (Z)-1-(3-(2-ethyl-6-methylphenyl)-4-oxothiazolidin-2-ylidene)-3-(4-(1-(4-(trifluoromethoxy)phenyl)-1H-1,2,4-triazol-3-yl)phenethyl)urea], for which the pest or weed control at 50 µg/cm2 in series [1] and in series [2] was 50 to 100% in each case. The YFM entry in series [4] is given as “A (80-100)”.
Turning to `CC(C)c1cccc(N2C(=O)CS/C2=N\C(=O)NCCc2ccc(-c3ncn(-c4ccc(OC(F)(F)F)cc4)n3)cc2)c1` [P51, (Z)-1-(3-(3-isopropylphenyl)-4-oxothiazolidin-2-ylidene)-3-(4-(1-(4-(trifluoromethoxy)phenyl)-1H-1,2,4-triazol-3-yl)phenethyl)urea], the pest or weed control at 50 µg/cm2 in series [1] and in series [2] was 50 to 100% throughout. In addition, the GPA entry in series [3] is listed as “B (More than 0-Less than 80)”. Further, the YFM entry in series [4] was “A (80-100)”.
In the case of `Cc1ccc(C(C)C)c(N2C(=O)CS/C2=N\C(=O)NCCc2ccc(-c3ncn(-c4ccc(C(F)(F)F)cc4)n3)cc2)c1` [P52, (Z)-1-(3-(2-isopropyl-5-methylphenyl)-4-oxothiazolidin-2-ylidene)-3-(4-(1-(4-(trifluoromethyl)phenyl)-1H-1,2,4-triazol-3-yl)phenethyl)urea], the pest or weed control at 50 µg/cm2 in series [1] and in series [2] was 50 to 100% in each case. In addition, in series [4], the YFM result was “A (80-100)”.
`COc1ccc(C(C)C)c(N2C(=O)CS/C2=N\C(=O)NCCc2ccc(-c3ncn(-c4ccc(C(F)(F)F)cc4)n3)cc2)c1` [P53, (Z)-1-(3-(2-isopropyl-5-methoxyphenyl)-4-oxothiazolidin-2-ylidene)-3-(4-(1-(4-(trifluoromethyl)phenyl)-1H-1,2,4-triazol-3-yl)phenethyl)urea]: the pest or weed control at 50 µg/cm2 in series [1] and in series [2] was 50 to 100% in each case. In addition, the YFM result in series [4] was “A (80-100)”.
Consider `Cc1ccc(C(C)C)c(N2C(=O)C(C)S/C2=N\C(=O)NCCc2ccc(-c3ncn(-c4ccc(OC(F)(F)F)cc4)n3)cc2)c1` (stereo not shown) [P57, (Z)-1-(3-(2-isopropyl-5-methylphenyl)-5-methyl-4-oxothiazolidin-2-ylidene)-3-(4-(1-(4-(trifluoromethoxy)phenyl)-1H-1,2,4-triazol-3-yl)phenethyl)urea], for which the pest or weed control at 50 µg/cm2 in series [1] and in series [2] was 50 to 100% each time. Besides, the YFM result in series [4] is given as “A (80-100)”.
On to `Cc1ccc(C(C)C)c(-n2c(C)cs/c2=N\C(=O)NCCc2ccc(-c3ncn(-c4ccc(OC(F)(F)F)cc4)n3)cc2)c1` [P65, (Z)-1-(3-(2-isopropyl-5-methylphenyl)-4-methylthiazol-2(3H)-ylidene)-3-(4-(1-(4-(trifluoromethoxy)phenyl)-1H-1,2,4-triazol-3-yl)phenethyl)urea], for which the pest or weed control at 50 µg/cm2 in series [1] and in series [2] was 50 to 100% throughout. Further, the YFM result in series [4] is given as “A (80-100)”.
With `Cc1ccccc1N1C(=O)CS/C1=N\C(=O)NCCCCc1ccc(-c2ncn(-c3ccc(OC(F)(F)F)cc3)n2)cc1` [P144, (Z)-1-(4-oxo-3-(o-tolyl)thiazolidin-2-ylidene)-3-(4-(4-(1-(4-(trifluoromethoxy)phenyl)-1H-1,2,4-triazol-3-yl)phenyl)butyl)urea], the pest or weed control at 50 µg/cm2 in series [1] and in series [2] was 50 to 100% in each case. Moreover, the YFM result in series [4] is recorded as “A (80-100)”.
As for `Cc1ccc(N2C(=O)CS/C2=N\C(=O)NCCCCc2ccc(-c3ncn(-c4ccc(OC(F)(F)F)cc4)n3)cc2)c(C(C)C)c1` [P154, (Z)-1-(3-(2-isopropyl-4-methylphenyl)-4-oxothiazolidin-2-ylidene)-3-(4-(4-(1-(4-(trifluoromethoxy)phenyl)-1H-1,2,4-triazol-3-yl)phenyl)butyl)urea], the pest or weed control at 50 µg/cm2 in series [1] and in series [2] was 50 to 100% throughout. The YFM result in series [4] was “B (More than 0-Less than 80)”.
As for `Cc1ccc(C(C)C)c(N2C(=O)CS/C2=N\C(=O)NCCCCc2ccc(-c3ncn(-c4ccc(C(F)(F)F)cc4)n3)cc2)c1` [P159, (Z)-1-(3-(2-isopropyl-5-methylphenyl)-4-oxothiazolidin-2-ylidene)-3-(4-(4-(1-(4-(trifluoromethyl)phenyl)-1H-1,2,4-triazol-3-yl)phenyl)butyl)urea], the pest or weed control at 50 µg/cm2 in series [1] and in series [2] was 50 to 100% throughout. Further, in series [3], the GPA entry is given as “B (More than 0-Less than 80)”. Besides, the YFM entry in series [4] is on record as “A (80-100)”.
For the compound `Cc1ccc(C(C)C)c(N2C(=O)CS/C2=N\C(=O)NCCC#Cc2ccc(-c3ncn(-c4ccc(OC(F)(F)F)cc4)n3)cc2)c1` [P160, (Z)-1-(3-(2-isopropyl-5-methylphenyl)-4-oxothiazolidin-2-ylidene)-3-(4-(4-(1-(4-(trifluoromethoxy)phenyl)-1H-1,2,4-triazol-3-yl)phenyl)but-3-yn-1-yl)urea], the pest or weed control at 50 µg/cm2 in series [1] and in series [2] was 50 to 100% in each case. Also, the YFM entry in series [4] is listed as “B (More than 0-Less than 80)”.
For `CC(C)c1ccccc1N1C(=O)CS/C1=N\C(=O)NCC(C)c1ccc(-c2ncn(-c3ccc(OC(F)(F)F)cc3)n2)cc1` (stereo not shown) [P205, (Z)-1-(3-(2-isopropylphenyl)-4-oxothiazolidin-2-ylidene)-3-(2-(4-(1-(4-(trifluoromethoxy)phenyl)-1H-1,2,4-triazol-3-yl)phenyl)propyl)urea], the pest or weed control at 50 µg/cm2 in series [1] and in series [2] was 50 to 100% each time. In series [4], the YFM entry is “A (80-100)”.
For `COc1ccc(C(C)C)c(N2C(=O)CS/C2=N\C(=O)NCC(C)c2ccc(-c3ncn(-c4ccc(OC(F)(F)F)cc4)n3)cc2)c1` (stereo not shown) [P679, (Z)-1-(3-(2-isopropyl-5-methoxyphenyl)-4-oxothiazolidin-2-ylidene)-3-(2-(4-(1-(4-(trifluoromethoxy)phenyl)-1H-1,2,4-triazol-3-yl)phenyl)propyl)urea], the pest or weed control at 50 µg/cm2 in series [1] and in series [2] was 50 to 100% in each case. In addition, the YFM result in series [4] is reported as “A (80-100)”.

These data come from patent US20140274688A1, “MOLECULES HAVING CERTAIN PESTICIDAL UTILITIES, AND INTERMEDIATES, COMPOSITIONS, AND PROCESSES RELATED THERETO” (DOW AGROSCIENCES LLC, priority 2013, published 2014).
